The source of these data is US20060293343A1, “Pyrimidine derivatives” (Asahi Kasei Pharma Corporation, priority 2005, published 2006).

Usually IC50 stands for the concentration needed to halve the response being measured. As a reminder, the EC50 is the concentration needed to bring the measured effect to its halfway point.

Like-named read-outs stand apart in the source and are kept apart here.

The subject of data set [1] is TNF-α production induced by LPS. Kind of data set: Inhibitory action of TNF-α production (in vivo) induced by LPS using mouse. The protocol:
C3H/He mouse (manufactured by Japan SLC Co., male) was used as a test animal. A desired concentration of the test sample was suspended in 0.5% methyl cellulose solution. The weight of the mouse was measured, and the test compound solution was orally administered at a dosage of 10 mL/kg while only 0.5% methyl cellulose was administered to the reference group. One group contained 5 to 7 mice. LPS was dissolved in physiological saline, and 10 μg was intraperitoneally administered to each mouse. The test compound was administered first, then LPS was administered 60 minutes thereafter. After 90 minutes, the blood was sampled from the large abdominal vein with the heparin, and a plasma was obtained by centrifugation. The content of TNF-α in the plasma was measured according to the protocol attached to TNF-α ELISA kit (manufactured by R & D System Co.). […] The suppression action of TNF-α production was represented by ED50 (mg/kg). Ex. No. in Table 11 denotes the example No.

Data set [2] relates to TNF-α production in LPS-stimulated mouse mononuclear cells. Kind of data set: Inhibitory action of TNF-α production using mouse mononuclear cells (in vitro). Format: cell-based. The note with it: mouse mononuclear cells from peripheral blood of C3H/He mouse; LPS 5 μg/mL, 21 hours; TNF-α ELISA; read-out: IC50 (nM), suppression action of TNF-α production. The protocol:
Mouse mononuclear cells were isolated from the peripheral blood of C3H/He mouse (manufactured by Japan SLC Co., male), and were suspended in a culture medium (trade name RPMI 1640 manufactured by Gibco Co.) containing 10% bovine serum. The cells were seeded in a 96 well plate as 50,000 cells/well, the test compound was added at a desired concentration, and the plate was allowed to stand in an incubator containing 5% CO2 at .37° C. for 15 minutes. LPS was added thereafter at a final concentration of 5 μg/mL, and the plate was allowed to stand in the incubator for 21 hours.
The culture medium containing produced TNF-α was retrieved, and the amount of TNF-α was measured according to the protocol attached to mouse TNF-α ELISA kit (manufactured by R & D Systems Co.). […] The suppression action of TNF-α was expressed-by […] (nM). Ex. No. in Table 9 denotes the example No.

Data set [3] has as its system T1, PDE4.
T1 construct: The PDE4 enzyme was purified from U937 cells that are the cells derived from lymphoma
In words: Inhibitory action of PDE4 enzyme activity (PDE4 purified from U937 cells). Format: biochemical. As to conditions: PDE4 fraction purified from U937 cells; [3H]-cAMP substrate; 30° C., 10 minutes. How it is done: (1) Purification of PDE4 from U937 Cells
The PDE4 enzyme was purified from U937 cells that are the cells derived from lymphoma. U937 cells were suspended in buffer solution A (20 mM Tris-HCl(pH 6.5), 1 mM MgCl2, 0.1 mM EGTA, 3 mM 2-mercaptoethanol) containing protease. inhibitor cocktail (manufactured by Sigma Co.), and a soluble fraction was obtained by centrifugation after ultrasonic disintegration (100,000 G, 30 minutes, 4° C.). […] Each fraction was tested for the cAMP metabolized PDE activity to identify the fractions containing PDE4 enzyme.
(2) Measurement of Inhibitory Activity of PDE4 Enzyme Activity
A desired concentration of the test compound was allowed to react in a reaction mixture (100 μL; 40 mM Tris-HCl (pH 7.4), 5 MM MgCl2, 4 mM 2-mercaptoethanol, […] cAMP, 0.83 μCi [^3H]-cAMP and PDE4 fraction) at 30° C. for 10 minutes. The enzyme reaction was stopped by adding 25 μL of trichloroacetic acid to the reaction mixture. The reaction solution was charged on a neutral alumina column equilibrated with 0.1 M of 2-[[tris(hydroxylmethyl)methyl]-amino]-1-ethanesulfonic acid (TES) buffer (pH 8.0) and, after washing the column with a sufficient amount of 0.1 M TES buffer solution, the column was eluted with 2N NaOH. A 500 μL aliquot of the eluate containing [^3H]-5′AMP product was filled in a scintillation vial containing the scintillation cocktail (5 ml, manufactured by Perkin Elmer Co.) to measure radioactivity. […] The inhibitory action of PDE4 enzyme activity was expressed by IC50 (nM). Ex. No. in Table 8 denotes the example No.

Data set [4] deals with C3H/He mouse. In words: Gastric emptying test of mouse (in vivo). The note with it: oral, test meal 60 minutes after compound. How it is done:
C3H/He mouse (manufactured by Japan SLC Co., male) fasted for 21 to 24 hours but allowed free access to water, was used as an experimental animal. A desired concentration of the test sample was suspended in 0.5% methyl cellulose solution. The weight of the mouse was measured, and the test compound solution was orally administered at a dosage of 10 mL/kg while only 0.5% methyl cellulose solution was administered to the reference group. One group contained 5 mice. A 1.5% methyl cellulose solution containing 0.05% phenol, red was used as a test meal solution. The test compound was administered, and 0.2 ml of the test meal was orally administered at 60 minutes thereafter. […] A 10% trichloroacetic acid solution (0.5 mL) was added to 5 mL of the supernatant, which was further centrifuged to remove proteins. A solution prepared by adding 125 μL of 2 N NaOH to the supernatant (1 mL) obtained by centrifugation was measured with a spectrophotometer (550 nm), and inhibition of transfer from the stomach to the small intestine was expressed by IC50 (mg/kg).

The subject of data set [5] is Marshall ferret. Kind of data set: Vomiting action using ferret. Format: in vivo. The note with it: oral, observed for more than 6 hours. How it is done: Marshall ferret (male, weight 1 to 1.5 kg, manufactured by Charles River Laboratories Japan, Inc.) was used. A desired concentration of the test compound was suspended in 0.5% methyl cellulose solution. The weight of a ferret was measured, and the solution of the test compound was orally administered at a dosage of 1 to 8 ml/kg. Only 0.5% methyl cellulose solution was administered to the reference group. One group contained 4 animals.

Data set [6] has as its system rabbit gastric gland cells. In words: Action on gastric acid secretion ability (in vitro), 14C-aminopyrine uptake in gastric gland cells. The note with it: Oryctolagus cuniculus, histamine 0.3 to 1.0 μM. The data set is classed as cell-based. The protocol:
Gastric acid secretion ability (as an index of the side effect) was tested according to the methods by BergLindh and Obrink (Acta Physiol. Scand. 97:401-414, 1976) and Sack and Speney (Am. J. Physiol. 243:G313-G319, 1982).
Gastric gland cells were prepared by collagenase treatment using male rabbit (Japanese white strain, manufactured by Oriental Yeast Co.).
The test compound, ^14C-aminopyrine (1.0 nmol/mL; 0.1 μCi/nmol) and histamine (0.3 to 1.0 μM) were incubated for a given time period, and gastric gland cell pellets obtained after centrifugation and washing were lysed with 100 μL of 1N-KOH. The lysate was filled in a scintillation vial containing a scintillation cocktail (manufactured by Perkin Elmer Co.) to measure the radioactivity. The gastric acid secretion action by the test compound was calculated as EC50, and the ratio of the activity relative to IC50 of suppression of TNF-α production described in Test Example 2 (degree of dissociation A) was determined from the following equation. The larger degree of dissociation A is more preferable. The results in Table 10 represent that secretion of the gastric acid ability(EC50) was lower activity in the compound of the invention, salts thereof or prodrugs thereof as compared with the suppression effect of TNF-α production(IC50). Ex. No. in Table 10 denotes the example No.
Degree of dissociation A=EC50 of gastric acid secretion ability/IC50 of suppression of TNF-α production

Setting [7] is: C3H/He mouse, orally administered 60 minutes before LPS 10 μg intraperitoneally, plasma TNF-α 90 minutes after LPS, read-out: ED50 (mg/kg), suppression action of TNF-α production.
Where [8] appears, read: mouse, oral, LPS 60 minutes after compound, plasma TNF-α after 90 minutes, read-out: suppression of TNF-α production ED50.

For `C=CCc1c(C)nc(-c2ccsc2)nc1Nc1ccc(C(=O)O)cc1` [Example 11], the ED50 in data set [1] (setting [7]) worked out at 26 mg/kg. Besides, the results for the IC50 in data set [2] and in data set [3] were 790 nM and 1170 nM, respectively.

In the case of `CCCc1c(CC)nc(-c2ccsc2)nc1Nc1ccc(C(=O)O)cc1` [Example 15], the ED50 in data set [1] (setting [7]) was determined as 13 mg/kg. For the same molecule, the figures for the IC50 in data set [2] and in data set [3] were 55 nM and 490 nM, respectively.

As to `C=CCc1c(CC)nc(-c2ccsc2)nc1Nc1ccc2cc(C(=O)O)ccc2c1` [Example 17], in data set [4], the “gastric emptying test IC50 (inhibition of transfer from the stomach to the small intestine)” value came out at 14 mg/kg. Moreover, in data set [5] (dosage of 50 mg/kg), the “incidence of vomiting by the ferret” value is “no incidence of vomiting”. In addition, the ED50 in data set [1] (setting [7]) and in data set [1] (setting [8]) was 3 mg/kg throughout. The EC50 in data set [6] came out at 1690 nM. The IC50 in data set [2] came out at 24 nM; in data set [3] it was 9 nM.

On to `CCc1c(C)nc(-c2ccsc2)nc1Nc1ccc(C(=O)O)cc1` [Example 18], for which the ED50 in data set [1] (setting [7]) came out at 37 mg/kg. The IC50 in data set [2] is 202 nM; in data set [3], 1680 nM.

In the case of `CCc1nc(-c2ccsc2)nc(Nc2ccc(C(=O)O)cc2)c1CC` [Example 57], in data set [1] (setting [7]), the ED50 was 24 mg/kg. The molecule also yielded an EC50 in data set [6] of 460 nM. Moreover, the IC50 in data set [2] turned out to be 44 nM.

Turning to `CCc1nc(-c2ccsc2)nc(Nc2ccc(CC(=O)O)cc2)c1CC` [Example 58], the ED50 in data set [1] (setting [7]) is 8 mg/kg. The EC50 in data set [6] was determined as 1310 nM. Also, the half-inhibitory concentration (IC50) in data set [2] turned out to be 695 nM.

With `CCc1nc(-c2ccsc2)nc(Nc2ccc3cc(C(=O)O)ccc3c2)c1CC` [Example 59], the ED50 in data set [1] (setting [7]) was determined as 6 mg/kg. Also, the EC50 in data set [6] was 227 nM. In addition, the IC50 in data set [2] stood at 69 nM; in data set [3], 41 nM.

Take `CCc1c(C)nc(-c2ccc(SC)s2)nc1Nc1ccc(CC(=O)O)cc1` [Example 78]: in data set [6], a half-maximal response (EC50) required 38400 nM. Moreover, in data set [2], the IC50 was 171 nM.

With `CCc1nc(-c2cccs2)nc(Nc2ccc(C(=O)O)cc2)c1CC` [Example 83], the ED50 in data set [1] (setting [7]) is 22 mg/kg. In addition, a half-maximal response in data set [6] (EC50) required 169 nM. In data set [2], the IC50 was 46 nM.

Turning to `CCc1nc(-c2cccs2)nc(Nc2ccc(CC(=O)O)cc2)c1CC` [Example 84], the ED50 in data set [1] (setting [7]) was 17 mg/kg. Also, a half-maximal response in data set [6] (EC50) required 1660 nM. Also, in data set [2], the IC50 worked out at 533 nM.

In the case of `CCc1nc(-c2cccs2)nc(Nc2ccc3cc(C(=O)O)ccc3c2)c1CC` [Example 85], the IC50 was 29 nM in data set [2] and 76 nM in data set [3].

As to `CCc1c(C)nc(-c2ccc(Br)s2)nc1Nc1ccc(CC(=O)O)cc1` [Example 148], in data set [4], the “gastric emptying test IC50 (inhibition of transfer from the stomach to the small intestine)” value worked out at 85 mg/kg. The “incidence of vomiting by the ferret” value in data set [5] (dosage of 100 mg/kg) is “no incidence of vomiting”. Moreover, the ED50 in data set [1] (setting [7]) and in data set [1] (setting [8]) was 12 mg/kg throughout. Moreover, in data set [6], the EC50 was 10100 nM. The IC50 in data set [2] came to 676 nM.

Take `CCc1nc(-c2ccco2)nc(Nc2ccc3cc(C(=O)O)ccc3c2)c1CC` [Example 188]: the IC50 came out at 46 nM in data set [2] and 59 nM in data set [3].

As for `C=CCc1c(CC)nc(-c2ccco2)nc1Nc1ccc2cc(C(=O)O)ccc2c1` [Example 191], the results for the IC50 in data set [2] and in data set [3] were 44 nM and 90 nM, respectively.

In the case of `CCc1c(C)nc(-c2cc(Br)cs2)nc1Nc1ccc(CC(=O)NO)cc1` [Example 193], the IC50 worked out at 39 nM in data set [2] and 70 nM in data set [3].
